This is an account of results in patent US20050090520A1 (priority 2003, published 2005).

Where two headings read alike, the source gives them in different places.

In series [1] the target is T1, S1P4 (Homo sapiens, UniProt O95977).
T1 sequence (O95977 1-384): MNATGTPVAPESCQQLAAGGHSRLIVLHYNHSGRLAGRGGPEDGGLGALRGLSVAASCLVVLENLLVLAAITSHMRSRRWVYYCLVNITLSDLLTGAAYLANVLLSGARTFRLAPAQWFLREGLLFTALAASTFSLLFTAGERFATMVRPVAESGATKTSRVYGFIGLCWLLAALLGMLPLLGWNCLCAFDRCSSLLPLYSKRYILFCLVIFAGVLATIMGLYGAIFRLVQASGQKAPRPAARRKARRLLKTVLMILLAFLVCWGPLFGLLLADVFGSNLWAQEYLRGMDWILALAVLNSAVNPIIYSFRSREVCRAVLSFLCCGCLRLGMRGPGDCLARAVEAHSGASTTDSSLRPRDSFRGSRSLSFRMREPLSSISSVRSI
Conditions: read-out: Potency (EC50) S1P4, cited from earlier work.

Series [2] deals with T1, S1P4. Conditions: Mandala et al., 2002; CHO cell membranes; read-out: Binding (IC50) S1P4; cited from earlier work.
Series [3] addresses T2, CYP4F3 (Homo sapiens, UniProt Q08477).
T2 sequence (Q08477 1-520): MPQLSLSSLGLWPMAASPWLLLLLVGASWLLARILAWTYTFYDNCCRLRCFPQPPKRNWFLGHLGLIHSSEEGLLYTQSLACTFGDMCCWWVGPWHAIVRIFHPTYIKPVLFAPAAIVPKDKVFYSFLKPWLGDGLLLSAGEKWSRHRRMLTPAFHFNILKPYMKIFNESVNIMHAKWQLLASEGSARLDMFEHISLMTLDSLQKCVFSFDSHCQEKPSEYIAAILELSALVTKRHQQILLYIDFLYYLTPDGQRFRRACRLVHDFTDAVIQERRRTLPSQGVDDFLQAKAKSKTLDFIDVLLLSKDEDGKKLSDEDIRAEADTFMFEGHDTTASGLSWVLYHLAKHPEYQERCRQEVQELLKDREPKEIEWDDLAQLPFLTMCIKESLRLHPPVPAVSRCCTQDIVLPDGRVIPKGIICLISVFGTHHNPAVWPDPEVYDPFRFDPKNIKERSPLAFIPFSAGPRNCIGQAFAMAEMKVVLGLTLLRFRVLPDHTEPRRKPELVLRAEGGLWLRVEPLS
Conditions: cited from earlier work.

The subject of series [4] is adult neural stem cells (NSCs). Description: Intracellular ATP proliferation assay. The class given is cell-based, mouse. Particulars: for Increase in intracellular ATP levels: 10 nM, 3 days. The procedure: (§1) The anterior lateral wall of the lateral ventricle of 5-6 week old mice was enzymatically dissociated at 37° C. for 20 min in 0.8 mg/ml hyaluronidase and 0.5 mg/ml trypsin in DMEM containing 4.5 mg/ml glucose and 80 units/ml DNase. The cells were gently triturated and mixed with three volumes of Neurosphere medium (DMEM/F12, B27 supplement, 125 mM HEPES Ph 7.4) containing 20 ng/ml EGF (unless otherwise stated), 100 units/ml penicillin, and 100 μg/ml streptomycin. After passing through a 70 μm strainer, the cells were pelleted at 160×g for 5 min. The supernatant was subsequently removed and the cells resuspended in Neurosphere medium supplemented as above, plated out in culture dishes and incubated at 37° C. Neurosphere cultures were ready to be split approximately 7 days after plating.
To split the neurosphere cultures, neurospheres were collected by centrifugation at 160×g for 5 min. The conditioned supernatant (conditioned medium) was removed and saved. The neurospheres were resuspended in 0.5 ml Trypsin/EDTA in HBSS (1×), incubated at 37° C. for 2 min, and triturated gently to aid dissociation. Following a further 3 min incubation at 37° C. and trituration, 3 volumes of ice cold NSPH-media-EGF were added to stop further trypsin activity. The cells were pelleted at 220×g for 4 min, and resuspended in a 1:1 mixture of fresh Neurosphere medium and conditioned medium. EGF was supplemented to 20 ng/ml and the culture plated out and incubated at 37° C.
(§2) The adherent cells were seeded at a density of 30,000 cells/well on poly-D-lysine in DMEM/F12 supplemented with 1% fetal calf serum (FCS).
The following experiment was performed in sets of four parallel experiments (i.e., performed in quadruplicate) so that the cells could be used for different assays. […] Cells were lysed with 0.1% Triton-X100 in Tris-EDTA buffer. Intracellular ATP was measured using an ATP-SL kit according to the manufacturer's instructions (BioThema, Sweden). […] For each experiment, wells were visually examined for signs of neurogenesis and counted to confirm the results of the assay. Results were repeatable and statistically significant.

Series [5] deals with adult neural stem cells (NSCs). Description: BrdU incorporation proliferation assay. Format: cell-based, mouse. Conditions: 10 nM. The procedure: as §1
To split the neurosphere cultures, neurospheres were collected by centrifugation at 160×g for 5 min. The conditioned supernatant (conditioned medium) was removed and saved. The neurospheres were resuspended in 0.5 ml Trypsin/EDTA in HBSS (1×), incubated at 37° C. for 2 min, and triturated gently to aid dissociation. […]
DNA synthesis is commonly used to measure cell proliferation. […] After incorporation if the pyrimidine analogue into DNA, BrdU was detected by immunoassay. […]

The conditions of series [6]: monkeys; cited from earlier work.
The conditions of series [7]: dog models, dosages below 200 mg/kg; IDDB; cited from earlier work.
For series [8] the following is noted: dogs; cited from earlier work.
The conditions of series [9]: rats, cited from earlier work.
Series [10] concerns the target S1P2 (Homo sapiens, UniProt O95136). Conditions: Mandala et al., 2002; CHO cell membranes; read-out: Binding (IC50) S1P2; cited from earlier work.
The target in series [11] is S1P3 (Homo sapiens, UniProt Q99500). Conditions: Mandala et al., 2002; CHO cell membranes; read-out: Binding (IC50) S1P3; cited from earlier work.
S1P3, sequence (Q99500 whole entry, species assumed): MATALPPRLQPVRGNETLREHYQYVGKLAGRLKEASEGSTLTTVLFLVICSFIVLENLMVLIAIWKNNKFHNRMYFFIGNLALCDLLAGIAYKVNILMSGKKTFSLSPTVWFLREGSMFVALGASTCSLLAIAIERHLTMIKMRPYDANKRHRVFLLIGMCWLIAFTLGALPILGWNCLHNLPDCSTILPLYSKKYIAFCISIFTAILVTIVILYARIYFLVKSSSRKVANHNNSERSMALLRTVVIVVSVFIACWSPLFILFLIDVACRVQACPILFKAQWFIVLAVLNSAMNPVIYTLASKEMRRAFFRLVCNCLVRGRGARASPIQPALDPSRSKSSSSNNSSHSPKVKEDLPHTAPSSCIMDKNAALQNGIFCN
The conditions of series [12]: primates, 3 mg/kg; IDDB; cited from earlier work.
For series [13] the following is noted: rat models; IDDB; cited from earlier work.
The conditions of series [14]: renal transplant patients, single oral dose 0.25-3 mg, whole blood, 96 hours; cited from earlier work.
The conditions of series [15]: cited from earlier work.
Series [16] addresses S1P5 (Homo sapiens, UniProt Q9H228). Particulars: Mandala et al., 2002; CHO cell membranes; read-out: Binding (IC50) S1P5; cited from earlier work.
In series [17] the test system is adult neural stem cells (NSCs). Description: Lactate dehydrogenase (LDH) cell death assay. The class given is cell-based, mouse. Conditions: 3 days. The procedure:
as §2
The death of cells that occurred during the 3 days was measured as leakage of lactate dehydrogenase (LDH) into the medium. […] The proportion of LDH in the medium to total LDH (medium+cells) gives the percentage of cell death. Treated and untreated cells can thus be compared to rule out apoptosis as the cause for the different results observed in the ATP proliferation assay. The amount of LDH was measured according to the instructions of the manufacturer, Promega, USA (see, also, Chen, et al., 2004).

S1P5, sequence (Q9H228 whole entry, species assumed): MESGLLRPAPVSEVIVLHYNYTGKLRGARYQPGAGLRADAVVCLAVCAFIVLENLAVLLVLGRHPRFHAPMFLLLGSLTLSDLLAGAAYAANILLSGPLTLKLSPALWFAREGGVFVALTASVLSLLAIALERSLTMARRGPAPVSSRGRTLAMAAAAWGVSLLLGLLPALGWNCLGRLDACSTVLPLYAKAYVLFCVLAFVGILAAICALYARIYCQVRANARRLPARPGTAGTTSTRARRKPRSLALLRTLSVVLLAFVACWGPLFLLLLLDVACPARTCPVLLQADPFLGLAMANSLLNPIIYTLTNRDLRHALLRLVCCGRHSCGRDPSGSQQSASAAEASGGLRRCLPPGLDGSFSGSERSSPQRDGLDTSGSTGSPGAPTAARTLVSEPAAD
S1P2, sequence (O95136 whole entry, species assumed): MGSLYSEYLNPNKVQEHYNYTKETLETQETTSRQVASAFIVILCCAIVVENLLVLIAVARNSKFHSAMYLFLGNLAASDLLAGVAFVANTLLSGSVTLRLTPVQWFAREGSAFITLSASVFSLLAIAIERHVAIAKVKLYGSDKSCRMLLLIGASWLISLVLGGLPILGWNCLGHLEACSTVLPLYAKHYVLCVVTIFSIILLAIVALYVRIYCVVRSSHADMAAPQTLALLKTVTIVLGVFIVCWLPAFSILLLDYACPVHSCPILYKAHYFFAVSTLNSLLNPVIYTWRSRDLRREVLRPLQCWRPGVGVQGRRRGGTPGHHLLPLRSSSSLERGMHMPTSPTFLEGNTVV

One may read the IC50 as the concentration that gives 50% inhibition. As for `CCCCCCCCc1ccc(CCC(N)(CO)COP(=O)(O)O)cc1` (racemic) [FTY720P], the EC50 was 7.2 nM in series [1] (Brinkmann et al., 2002) and 43 nM in series [1] (Novartis data). In series [2], the IC50 was 5.9 nM.
The term LD50 denotes the dose expected to kill half of the subjects tested. For the compound `CCCCCCCCc1ccc(CCC(N)(CO)CO)cc1` [FTY720, 2-amino-2-[2-(4-octylphenyl)ethyl]-1,3-propanediol], the Metabolic route result in [3] is reported as “metabolized primarily by CYP4F3 to the corresponding carboxylic acid”. Also, the “Concentration of maximum proliferation effect” value in series [4] (FIG. 2) was found to be 0.04 nM. The EC50 in series [4] (Mus musculus, Neural stem cell, dose-response curve, FIG. 2, read-out: EC50 of in vitro proliferation of NSCs (ATP assay)) was 0.02 nM. For the same compound, the “Increase in intracellular ATP levels” value in series [4] (adherent cells) was determined as 42%; in [4] (suspension cells) it was 25%. Further, the “Increase in BrdU incorporation” value stood at 271% in series [5] (adherent cells) and 52% in [5] (suspension cells). For the same compound, the Oral bioavailability in [6] is reported as 40%; in [8], 60%; in [9] it was 80%. In series [7], the Deaths entry is recorded as “no deaths were observed”. Moreover, the T1/2 in series [9] (single oral dose 0.1 mg/kg) is 18.1 h; in series [9] (single oral dose 1 mg/kg) it was 21.6 h. Moreover, the IC50 was over 10000 nM in [10], over 10000 nM in [11], over 5000 nM in [2] and 2620 nM in [16]. The Toxicity entry in series [12] was “no observed toxicity”. For the same compound, the LD50 in series [13] is 300 to 600 mg/kg. In series [14], the Absorption result is reported as “slowly absorbed”. In addition, the “Cmax and AUC versus dose” value in [14] is “proportional to the dose”. The Adverse events entry in series [15] (PI renal transplant patients, 0.25-3.5 mg single dose) is given as “no serious adverse events”. The “Only observed side effect” value in series [15] (orally administered for immunosuppression) was “mild and transient bradycardia”. For the same compound, in [17], the “Change in LDH levels between control and treated cells” value is reported as “No significant change”.
